Data reported in US20210128639A1, “CELL PREPARATION FOR TREATING BRAIN TUMOR” (priority 2017, published 2021).

Key:
Assay type in all cases: cell-based, human
NS/PCs expressing HSVtk = test: Cell death of NS/PCs expressing HSVtk on adding ganciclovir to the medium; conditions: 1 μg/ml ganciclovir (GCV) added to the medium
From the text: Secondary or tertiary NS/PCs differentiation-induced from human iPS cells were collected with the centrifuge and disassembled into single cells using TrypLE Select. The single cells were suspended in NS medium, inoculated into a low adhesive flask at a concentration of 1×10^5 cells/ml, infected with the CSIV-EF-HSV1tk-IRES2-hKO1 lentiviral vector at an MOI (multiplicity of infection) of 0.5 to 1, and cultured for 7 days with the medium replaced every 3 to 4 days. The obtained NS/PCs were infected with the CSIV-EF-HSV1tk-IRES2-hKO1 lentiviral vector at an MOI of 0.5 to 1 in the same way again to prepare therapeutic stem cells (TSCs), that is, NS/PCs expressing HSVtk.

[1] = system: Tet-induction NS/PCs expressing HSVtk; test: Cell death of Tet-induction NS/PCs expressing HSVtk on adding Dox and GCV to the medium; conditions: 1 μg/ml doxycycline (Dox) and 1 μg/ml GCV added to the medium
From the text: Tet-induced iPS cells expressing HSVtk were differentiation-induced into NS/PCs to obtain secondary and tertiary Tet-induced NS/PCs expressing HSVtk.

[2] = system: Tet-induction iPS cells expressing HSVtk; test: Cell death of Tet-induction iPS cells expressing HSVtk on adding Dox and GCV to the medium; conditions: 1 μg/ml doxycycline (Dox) and 1 μg/ml GCV added to the medium
From the text: Human iPS cells were infected with the CSIV-HSV1tk-TRE-EF-KT lentiviral vector at an MOI of 2.5 to 10 and cultured. The clones were then sorted with the cell sorter to obtain an iPS cell line expressing hKO1 steadily and highly.

Nc1nc(O)c2ncn(COC(CO)CO)c2n1 [GCV, ganciclovir]
cell death of NS/PCs expressing HSVtk (NS/PCs expressing HSVtk): cell death of the NS/PCs expressing HSVtk was induced | cell death of Tet-induction NS/PCs expressing HSVtk [1]: cell death of these Tet-induction NS/PCs expressing HSVtk was also induced | cell death of Tet-induction iPS cells expressing HSVtk [2]: cell death of Tet-induction iPS cells expressing HSVtk was induced
